Data as given in paper PMC6751662, “Pharmacological and functional similarities of the human neuropeptide Y system in C. elegans challenges phylogenetic views on the FLP/NPR system” (Cell Communication and Signaling : CCS, 2019).

Columns and labels:
[1] = biological target: T1, NPR-1 (Caenorhabditis elegans, UniProt Q18534); test: cAMP reporter gene assay, Gi/o (inhibition of forskolin-induced cAMP), NPR-1; type: cell-based, C. elegans; parameters: host or cells: HEK293; settings: inhibition of cAMP production induced by 1 µM forskolin (set to 1.00), lower = higher Gi/o activity, transiently transfected HEK293 cells, mean of at least three independent experiments
T1 sequence (Q18534 1-457): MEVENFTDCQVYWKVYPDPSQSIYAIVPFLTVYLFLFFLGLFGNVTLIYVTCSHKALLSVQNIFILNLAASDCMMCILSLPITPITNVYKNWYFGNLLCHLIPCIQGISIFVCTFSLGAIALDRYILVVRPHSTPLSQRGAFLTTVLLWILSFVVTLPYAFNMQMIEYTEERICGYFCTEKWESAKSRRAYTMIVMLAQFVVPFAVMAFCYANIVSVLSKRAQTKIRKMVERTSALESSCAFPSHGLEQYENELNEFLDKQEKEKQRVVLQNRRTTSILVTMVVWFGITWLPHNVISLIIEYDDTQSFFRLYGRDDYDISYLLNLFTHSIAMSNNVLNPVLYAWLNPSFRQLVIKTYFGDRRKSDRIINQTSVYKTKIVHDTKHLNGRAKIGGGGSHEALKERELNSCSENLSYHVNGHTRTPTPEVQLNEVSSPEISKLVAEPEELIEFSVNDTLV
Protocol: Activation of Gs and Gi/o was assessed with a cAMP reporter gene assay. HEK293 cells grown to 70–80% confluency in 6-well plates were transiently co-transfected with vectors encoding the receptor and the cAMP reporter gene plasmid pGL4.29 [luc2P/CRE/Hygro] (Promega; 4 μg total, 1:1 ratio) using Metafectene Pro (3 μl/μg DNA; Biontex) following the manufacturer’s instructions. 16 h post transfection, the cells were seeded into white 384-well plates at a density of 20,000 cells/well. On the next day, the medium was removed and the cells were stimulated with 20 μl of peptide solution (or forskolin as positive control) in serum-free DMEM for 4 h. For measuring Gi/o activity, the peptide solutions additionally contained 1 μM forskolin to elevate cellular cAMP levels. After incubation, the luciferase substrate OneGlo in lysis buffer (Promega) was added and the luminescence was measured in a microplate reader Tecan Spark (Tecan). Data were analyzed with GraphPad Prism 5.03 and are shown as fold of basal or fold of forskolin in case of Gαi/o activity.
(§1) For in vitro activation, data is presented as mean ± SEM of at least three independent experiments conducted in technical triplicate. […] For the C. elegans NPRs, we considered the strongest response elicited by any of the peptides downstream of a particular receptor as the receptor’s maximal signal. This may or may not be the biological maximum that can be reached by the ‘true’ endogenous agonist. For the human receptors, the response to the established endogenous agonist reflected the maximal signal.

[2] = Solubility of crude peptides in RP-HPLC purification solvents; type: physicochemical
Protocol: C-terminally amidated peptides were synthesized in 15 μmol scale by solid-phase peptide synthesis following the Fmoc/tert-butyl strategy (reviewed in [18]) on Rink amide resin using an automated Syro II peptide synthesizer (MultiSynTech). Automated coupling reactions were performed as double couplings using 8 eq Nα-protected amino acid, activated in situ with equimolar amounts of Oxyma and […] in dimethylformamide (DMF) for 30 min. Automated Fmoc deprotection was carried out with 40% (v/v) piperidine in DMF for 3 min and 20% (v/v) piperidine in DMF for 10 min. Reactive side chains of amino acids were protected by tert-butyl (tBu for Tyr, Ser, Asp, Glu, Thr), trityl (Trt for Asn, Gln, His), 2,2,4,6,7-pentamethyldihydrobenzofuran-5-sulfonyl (Pbf for Arg) and tert-butyloxycarbonyl (Boc for Lys). Peptides were cleaved off the resin using trifluoroacetic acid (TFA)/H2O/triisopropylsilane (90/5/5, v/v/v) for 2.5 h at room temperature and precipitated in ice cold diethyl ether. All peptides were purified to > 95% purity by RP-HPLC (Shimadzu) using a Phenomenex Jupiter 10 μm Proteo 90 Å (C12) column. For most peptides, linear gradients of H2O + 0.1% trifluoroacetic acid (TFA) (eluent A) and acetonitrile (ACN) + 0.08% TFA (eluent B) were applied at a flow rate of 10 ml/minute. […] FLP-27, FLP-33, and FLP-34 were solubilized by ultrasonication at 50 °C for 10 min and subsequently purified under standard solvent conditions used pre-heated HPLC systems. […] Peptide identity was verified by matrix-assisted laser desorption/time of flight (MALDI-ToF; Ultraflex III MALDI-ToF/ToF, Bruker Daltonics) mass spectrometry, and peptide purity was evaluated with analytical RP-HPLC.

[3] = biological target: T2, Y5R (Homo sapiens, UniProt Q15761); test: IP accumulation assay, chimeric GαΔ6qi4myr, Y5R; type: cell-based; settings: chimeric GαΔ6qi4myr co-transfected, transiently transfected HEK293 cells, mean of at least three independent experiments
T2 construct: expressed in transfected cells; host or cells: HEK293, transient
T2 sequence (Q15761 1-445): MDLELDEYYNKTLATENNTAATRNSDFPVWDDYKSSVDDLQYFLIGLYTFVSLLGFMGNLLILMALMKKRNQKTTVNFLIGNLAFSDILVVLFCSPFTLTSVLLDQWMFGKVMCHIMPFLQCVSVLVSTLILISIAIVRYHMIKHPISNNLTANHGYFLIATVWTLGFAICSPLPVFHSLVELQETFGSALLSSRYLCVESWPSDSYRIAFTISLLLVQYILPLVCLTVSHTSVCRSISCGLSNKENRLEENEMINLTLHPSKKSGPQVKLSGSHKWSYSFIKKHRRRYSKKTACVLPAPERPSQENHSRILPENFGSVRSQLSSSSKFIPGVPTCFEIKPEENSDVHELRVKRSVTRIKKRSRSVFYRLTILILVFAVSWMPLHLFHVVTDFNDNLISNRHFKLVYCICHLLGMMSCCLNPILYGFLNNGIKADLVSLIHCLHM
Protocol: For measuring IP accumulation, HEK293 cells grown to 70–80% confluency in 6-well plates were transiently co-transfected using Metafectene Pro (2.5 μl/μg DNA; Biontex) with plasmids containing receptor and/or mock (empty pcDNA3.1) (for endogenous Gq-coupling) using 4 μg total DNA in a ratio of 3:1 following the manufacturer’s instructions. For testing Gα16- and GαΔ6qi4myr-coupling, plasmids encoding the corresponding Gα protein were co-transfected instead of mock. Gα16 is naturally promiscuous and stimulates the phospholipase C (PLC) pathway leading to IP production, while the exchange of the C-terminal four amino acids of Gαq for the corresponding residues of Gαi1 in the chimeric GαΔ6qi4myr confers the ability to couple to Gi/o protein-preferring receptors but still stimulate PLC, thus specifically redirecting downstream cellular signaling. 16 h post transfection, the cells were seeded into white 384-well plates at a density of 20,000 cells/well. Media was removed 24 h later and the cells were incubated with the indicated concentration of peptides for 1 h in HBSS + 20 mM LiCl. IP accumulation was measured with the HTRF-based IP-One Gq kit (Cisbio) on a microplate reader (Tecan Spark).
as §1

- cAMP, x-fold of forskolin (mean), NPR-1 ([1]; 0.1 µM peptide): 0.87 x-fold of forskolin
- cAMP, x-fold of forskolin (mean), NPR-1 ([1]; 10 µM peptide): 0.89 x-fold of forskolin
- solubility of crude peptide at basic pH ([2]; 10 mM (NH4)2CO3, pH 8.5, used for purification): improved solubility at basic pH
- solubility of crude peptide ([2]; H2O + 0.1% TFA / acetonitrile + 0.08% TFA (RP-HPLC purification conditions)): partly insoluble
- IP accumulation, x-fold of basal (mean), Y5R ([3]; 0.1 µM peptide): 0.67 x-fold of basal
- IP accumulation, x-fold of basal (mean), Y5R ([3]; 10 µM peptide): 1.41 x-fold of basal
Substance: NPENDTPFGTMRF-NH2 [FLP-3-4, C. elegans FMRFamide-like peptide, C-terminally amidated, synthesized by SPPS]
